Data as given in US12583849B2, “KCNT1 inhibitors and methods of use” (Praxis Precision Medicines, Inc., priority 2020, dated 2026).

The compounds below were run against T1, KCNT1 (KNa1.1, Slack) (Homo sapiens, UniProt Q5JUK3) (assay: KCNT1-WT-Basal Patch Clamp Assay). Details: tetracycline inducible cell line (HEK-TREX); SyncroPatch 384PE automated patch clamp, perforated patch mode, room temperature, step from -80 mV to 0 mV.
T1 construct: expressed in transfected cells; host or cells: HEK-TREX (tetracycline-inducible cell line)
T1 sequence (Q5JUK3 1-1230): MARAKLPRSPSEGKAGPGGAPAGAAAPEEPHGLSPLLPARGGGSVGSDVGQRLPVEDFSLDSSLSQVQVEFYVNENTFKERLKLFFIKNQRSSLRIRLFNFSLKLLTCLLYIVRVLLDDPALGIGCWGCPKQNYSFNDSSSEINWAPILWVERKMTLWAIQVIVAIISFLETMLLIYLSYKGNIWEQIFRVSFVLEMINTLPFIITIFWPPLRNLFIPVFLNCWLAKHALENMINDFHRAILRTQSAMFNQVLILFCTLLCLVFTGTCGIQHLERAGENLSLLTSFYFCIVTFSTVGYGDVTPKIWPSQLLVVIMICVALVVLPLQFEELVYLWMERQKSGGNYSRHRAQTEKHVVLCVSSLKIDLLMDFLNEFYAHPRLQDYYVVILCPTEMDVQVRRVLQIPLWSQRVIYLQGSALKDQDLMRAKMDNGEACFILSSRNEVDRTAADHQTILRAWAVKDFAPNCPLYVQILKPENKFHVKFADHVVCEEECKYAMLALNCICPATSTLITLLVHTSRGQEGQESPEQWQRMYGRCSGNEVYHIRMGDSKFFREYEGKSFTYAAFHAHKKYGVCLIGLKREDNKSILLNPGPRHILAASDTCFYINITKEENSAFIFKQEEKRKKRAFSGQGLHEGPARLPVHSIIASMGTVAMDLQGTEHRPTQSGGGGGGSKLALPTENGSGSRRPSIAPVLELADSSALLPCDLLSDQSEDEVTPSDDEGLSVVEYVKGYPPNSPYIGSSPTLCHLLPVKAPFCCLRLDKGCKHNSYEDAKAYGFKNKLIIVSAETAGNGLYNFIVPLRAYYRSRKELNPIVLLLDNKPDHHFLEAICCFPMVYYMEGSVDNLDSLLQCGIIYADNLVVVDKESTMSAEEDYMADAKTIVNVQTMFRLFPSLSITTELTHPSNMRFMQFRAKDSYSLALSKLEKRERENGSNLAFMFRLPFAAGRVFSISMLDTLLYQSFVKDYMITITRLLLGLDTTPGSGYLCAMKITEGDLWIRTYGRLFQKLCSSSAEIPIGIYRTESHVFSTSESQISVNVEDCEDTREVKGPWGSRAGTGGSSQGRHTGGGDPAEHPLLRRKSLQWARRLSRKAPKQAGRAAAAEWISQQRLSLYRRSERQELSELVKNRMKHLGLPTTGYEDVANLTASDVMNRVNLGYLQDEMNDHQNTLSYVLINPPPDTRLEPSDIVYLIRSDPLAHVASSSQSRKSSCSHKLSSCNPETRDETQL
Assay type: cell-based
Summary of the method: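 Tetracycline-inducible HEK-TREX cells expressing human KCNT1, recorded by automated perforated patch clamp (10 μM escin) at room temperature, with 4 mM external K+ at pH 7.4. Mean current taken during a 100 ms step from −80 mV to 0 mV, averaged over 3 sweeps. IC50 from Hill fit of % inhibition; otherwise % inhibition at top concentration.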

SMILES | IC50 [µM]
CCS(=O)(=O)c1ccc(C(=O)N[C@@H](C)c2nc(-c3ccnc(C4CC4)c3)no2)s1 [Compound I-93, (S)—N-(1-(3-(2-cyclopropylpyridin-4-yl)-1,2,4-oxadiazol-5-yl)ethyl)-5-(ethylsulfonyl)thiophene-2-carboxamide] | ≤ 1
CC(C)Oc1cc(-c2noc([C@H](C)NC(=O)c3ccccc3)n2)ccn1 [Compound I-43, (S)—N-(1-(3-(2-isopropoxypyridin-4-yl)-1,2,4-oxadiazol-5-yl)ethyl)benzamide] | ≤ 1
Cc1ncc(C(=O)NC(C)c2nc(-c3cccc(F)c3)no2)c(C)n1 (stereo not drawn) [Compound I-48, N-[1-[3-(3-fluorophenyl)-1,2,4-oxadiazol-5-yl]ethyl]-2,4-dimethyl-pyrimidine-5-carboxamide] | ≥ 20
C[C@H](NC(=O)C(C)(C)C)c1nc(-c2ccnc(C3CC3)c2)no1 [III-5] | ≤ 1
Cc1nc(C(F)(F)F)ccc1C(=O)NC(C)c1nc(-c2cccc(F)c2)no1 (stereo not drawn) [Compound I-47, N-[1-[3-(3-fluorophenyl)-1,2,4-oxadiazol-5-yl]ethyl]-2-methyl-6-(trifluoromethyl)pyridine-3-carboxamide] | 1 to 20
C[C@H](NC(=O)C1CCCN(C)C1)c1nc(-c2ccnc(C(F)(F)F)c2)no1 (stereo partly drawn) [Compound I-68, 1-methyl-N—((S)-1-(3-(2-(trifluoromethyl)pyridin-4-yl)-1,2,4-oxadiazol-5-yl)ethyl)piperidine-3-carboxamide] | ≥ 20
C[C@H](NC(=O)c1cccc(OC(F)(F)F)c1)c1nc(-c2ccnc(C3CC3)c2)no1 [Compound I-103, (S)—N-(1-(3-(2-cyclopropylpyridin-4-yl)-1,2,4-oxadiazol-5-yl)ethyl)-3-(trifluoromethoxy)benzamide] | ≤ 1
C[C@H](NC(=O)c1nc(C(F)(F)F)cs1)c1nc(-c2ccnc(C(F)(F)F)c2)no1 [Compound I-5, (S)-4-(trifluoromethyl)-N-(1-(3-(2-(trifluoromethyl)pyridin-4-yl)-1,2,4-oxadiazol-5-yl)ethyl)thiazole-2-carboxamide] | ≤ 1
Cc1oncc1C(=O)N[C@@H](C)c1nc(-c2ccnc(C(F)(F)F)c2)no1 [Compound I-21, (S)-5-methyl-N-(1-(3-(2-(trifluoromethyl)pyridin-4-yl)-1,2,4-oxadiazol-5-yl)ethyl)isoxazole-4-carboxamide] | 1 to 20
C[C@H](NC(=O)c1ccno1)c1nc(-c2ccnc(C(F)(F)F)c2)no1 [Compound I-23, (S)—N-(1-(3-(2-(trifluoromethyl)pyridin-4-yl)-1,2,4-oxadiazol-5-yl)ethyl)isoxazole-5-carboxamide] | ≥ 20
C[C@H](NC(=O)c1ccns1)c1nc(-c2ccnc(C(F)(F)F)c2)no1 [Compound I-22, (S)—N-(1-(3-(2-(trifluoromethyl)pyridin-4-yl)-1,2,4-oxadiazol-5-yl)ethyl)isothiazole-5-carboxamide] | 1 to 20
CC1CC(C(=O)N[C@@H](C)c2nc(-c3ccnc(C(F)(F)F)c3)no2)C1 (mixture of isomers) [Compound I-74, 3-methyl-N-[(1S)-1-[3-[2-(trifluoromethyl)-4-pyridyl]-1,2,4-oxadiazol-5-yl]ethyl]cyclobutanecarboxamide] | ≤ 1
C[C@H](NC(=O)c1ccnc(C(F)(F)F)c1)c1nc(-c2ccnc(C(F)(F)F)c2)no1 [Compound I-14, (S)-2-(trifluoromethyl)-N-(1-(3-(2-(trifluoromethyl)pyridin-4-yl)-1,2,4-oxadiazol-5-yl)ethyl)isonicotinamide] | ≤ 1
C[C@H](NC(=O)c1ccccc1)c1nc(-c2ccnc(C3CC3)c2)no1 [Compound I-41, (S)—N-(1-(3-(2-cyclopropylpyridin-4-yl)-1,2,4-oxadiazol-5-yl)ethyl)benzamide] | ≤ 1
C[C@H](NC(=O)N1CCCc2ccccc21)c1nc(-c2ccnc(C3CC3)c2)no1 [II-8] | ≤ 1
C[C@H](NC(=O)C1CCCCN1C)c1nc(-c2ccnc(C(F)(F)F)c2)no1 (stereo partly drawn) [Compound I-66, 1-methyl-N—((S)-1-(3-(2-(trifluoromethyl)pyridin-4-yl)-1,2,4-oxadiazol-5-yl)ethyl)piperidine-2-carboxamide] | ≥ 20
C[C@H](NC(=O)[C@H](C)c1ccccc1)c1nc(-c2ccnc(C(F)(F)F)c2)no1 [Compound I-17, (R)-2-phenyl-N—((S)-1-(3-(2-(trifluoromethyl)pyridin-4-yl)-1,2,4-oxadiazol-5-yl)ethyl)propanamide] | ≤ 1
C[C@H](NC(=O)c1ccccc1)c1nc(-c2ccnc(C(F)(F)F)c2)no1 [Compound I-8, (S)—N-(1-(3-(2-(trifluoromethyl)pyridin-4-yl)-1,2,4-oxadiazol-5-yl)ethyl)benzamide] | ≤ 1
C[C@H](NC(=O)N(C)c1ccccc1)c1nc(-c2ccnc(C(F)(F)F)c2)no1 [II-12] | ≤ 1
COc1cccc(C(=O)N[C@@H](C)c2nc(-c3ccnc(C4CC4)c3)no2)c1 [Compound I-79] | ≤ 1
Cc1cc(C(=O)N[C@@H](C)c2nc(-c3ccnc(C4CC4)c3)no2)ccn1 [Compound I-101, (S)—N-(1-(3-(2-cyclopropylpyridin-4-yl)-1,2,4-oxadiazol-5-yl)ethyl)-2-methyl isonicotinamide] | ≤ 1
C[C@H](NC(=O)Cc1ccccc1)c1nc(-c2ccnc(C(F)(F)F)c2)no1 [Compound I-13, (S)-2-phenyl-N-(1-(3-(2-(trifluoromethyl)pyridin-4-yl)-1,2,4-oxadiazol-5-yl)ethyl)acetamide] | 1 to 20
C[C@H](NC(=O)c1cc(F)cc(F)c1)c1nc(-c2ccnc(C3CC3)c2)no1 [Compound I-102, (S)—N-(1-(3-(2-cyclopropylpyridin-4-yl)-1,2,4-oxadiazol-5-yl)ethyl)-3,5-difluorobenzamide] | ≤ 1
CC(C)Oc1cc(-c2noc([C@H](C)NC(=O)N3CCCCC3)n2)ccn1 [II-2] | ≤ 1
C[C@H](NC(=O)C1CC(F)(F)C1)c1nc(-c2ccnc(C(F)(F)F)c2)no1 [Compound I-2, (S)-3,3-difluoro-N-(1-(3-(2-(trifluoromethyl)pyridin-4-yl)-1,2,4-oxadiazol-5-yl)ethyl)cyclobutane-1-carboxamide] | 1 to 20
C[C@H](NC(=O)N1CCCCC1)c1nc(-c2ccnc(C(F)(F)F)c2)no1 [II-10] | 1 to 20
CC(=O)N1CCCC(C(=O)N[C@@H](C)c2nc(-c3ccnc(C(F)(F)F)c3)no2)C1 (mixture of isomers) [Compound I-85, 1-acetyl-N-[(1S)-1-[3-[2-(trifluoromethyl)-4-pyridyl]-1,2,4-oxadiazol-5-yl]ethyl]piperidine-3-carboxamide] | ≥ 20
C[C@H](NC(=O)c1cccc(Cl)c1)c1nc(-c2ccnc(C3CC3)c2)no1 [Compound I-63, 3-chloro-N-[(1S)-1-[3-(2-cyclopropyl-4-pyridyl)-1,2,4-oxadiazol-5-yl]ethyl]benzamide] | ≤ 1
C[C@H](NC(=O)c1ccnc(C(F)(F)F)c1)c1nc(-c2ccnc(C3CC3)c2)no1 [Compound I-96, (S)—N-(1-(3-(2-cyclopropylpyridin-4-yl)-1,2,4-oxadiazol-5-yl)ethyl)-2-(trifluoromethyl)isonicotinamide] | ≤ 1
C[C@H](NC(=O)N(C)C(C)(C)C)c1nc(-c2ccnc(C3CC3)c2)no1 [II-9] | ≤ 1
